Biological target: PTEN (Homo sapiens, UniProt P60484)
Assay: absorbance […] nm, pNPP hydrolysis
Type: biochemical
Conditions: 100 mM pNPP; 25 °C; Tris-HCl pH 8.0

Chain of PTEN (P60484 2-403): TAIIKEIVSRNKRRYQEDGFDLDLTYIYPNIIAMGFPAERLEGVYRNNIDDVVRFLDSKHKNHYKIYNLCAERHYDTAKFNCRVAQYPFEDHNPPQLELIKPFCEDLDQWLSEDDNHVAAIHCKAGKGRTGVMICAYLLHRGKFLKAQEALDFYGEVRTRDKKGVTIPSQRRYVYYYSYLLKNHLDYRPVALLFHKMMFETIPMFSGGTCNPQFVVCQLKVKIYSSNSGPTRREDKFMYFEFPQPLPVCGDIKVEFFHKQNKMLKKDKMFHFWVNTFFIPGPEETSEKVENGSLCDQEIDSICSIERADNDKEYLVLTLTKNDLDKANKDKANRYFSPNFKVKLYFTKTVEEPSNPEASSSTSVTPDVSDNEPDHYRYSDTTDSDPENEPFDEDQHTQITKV

O=[N+]([O-])c1ccc(OP(=O)(O)O)cc1 [pNPP]
absorbance 405 nm, pNPP hydrolysis: in vitro activity and affinity for pNPP substrate are similar for both INPP4B and PTEN
